Laboratory results: patent US20260226084A1, “DUAL RAF AND TUBULIN INHIBITORS AND METHODS OF USE THEREOF” (Deciphera Pharmaceuticals, LLC, priority 2023, published 2026)
Read-outs that look alike come from different tables or passages of the source.

How the values were obtained:
[1] = target: T1, B-Raf kinase (SEQ ID NO: 1) (Homo sapiens, UniProt P15056); test: Biochemical Assay for B-Raf (coupled pyruvate kinase/lactate dehydrogenase assay); settings: 1 mM ATP; read-out: BRAF (inhibition of biochemical activity, IC50)
T1 construct: GST (N); purchased Sigma
T1 sequence (P15056 416-766): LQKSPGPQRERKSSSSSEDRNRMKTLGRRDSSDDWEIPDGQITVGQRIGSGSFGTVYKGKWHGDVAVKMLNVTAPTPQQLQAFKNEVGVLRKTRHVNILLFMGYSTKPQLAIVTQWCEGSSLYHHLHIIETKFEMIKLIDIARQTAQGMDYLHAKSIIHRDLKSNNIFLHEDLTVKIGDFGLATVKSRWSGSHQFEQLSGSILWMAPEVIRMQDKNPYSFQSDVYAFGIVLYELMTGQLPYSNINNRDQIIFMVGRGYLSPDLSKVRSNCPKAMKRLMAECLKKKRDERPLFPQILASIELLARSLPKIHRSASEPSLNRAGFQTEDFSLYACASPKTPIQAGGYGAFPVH

[2] = target: T2, C-Raf kinase (SEQ ID NO: 2) (Homo sapiens, UniProt P04049, Y340D/Y341D); test: Biochemical Assay for C-Raf (coupled pyruvate kinase/lactate dehydrogenase assay); settings: 1 mM ATP; read-out: CRAF (inhibition of biochemical activity, IC50)
T2 construct: C-Raf residues 306-end; Y340D, Y341D with; GST (N); purchased Sigma
T2 sequence (P04049 307-648 Y340D/Y341D): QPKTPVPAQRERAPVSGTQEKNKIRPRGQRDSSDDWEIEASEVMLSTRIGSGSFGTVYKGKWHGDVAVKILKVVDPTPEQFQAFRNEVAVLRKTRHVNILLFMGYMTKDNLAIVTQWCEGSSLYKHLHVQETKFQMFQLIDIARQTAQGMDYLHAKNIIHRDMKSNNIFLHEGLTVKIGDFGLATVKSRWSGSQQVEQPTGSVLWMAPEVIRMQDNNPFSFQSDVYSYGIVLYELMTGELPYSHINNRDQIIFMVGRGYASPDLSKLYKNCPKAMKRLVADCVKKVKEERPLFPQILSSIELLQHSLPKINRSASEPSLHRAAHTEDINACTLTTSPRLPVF

MiaPaca-2 cells = test: MiaPaca-2 Cell Proliferation Assay; format: cell-based; settings: Table 2, read-out: Inhibition of cell proliferation in MiaPaca-2 (IC50 class)
Outline: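 Viability was read as resazurin fluorescence (540 nm excitation, 600 nm emission) after 5–6 h with dye. Compounds were tested as serial dilutions in triplicate, with IC50 derived from the dose–response.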

HCT-116 cells = test: HCT-116 Cell Proliferation Assay; format: cell-based; settings: Table 2, read-out: Inhibition of cell proliferation in HCT-116 (IC50 class)
Outline: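 IC50 values come from resazurin fluorescence (540 nm excitation, 600 nm emission) added for 4 to 5 h after compound treatment. Treatment: serially diluted compound in triplicate on 375 HCT-116 cells per well in complete McCoy's 5A/10% FBS, 67 to 72 hours, 37 °C, 5% CO2.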

HPAF-II cells = test: HPAF-II Cell Proliferation Assay; format: cell-based; settings: HPAF-II cells, Table 2, read-out: Inhibition of cell proliferation in HPAF-II (IC50 class)
Outline: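 Viability read-out was resazurin fluorescence (540 nm excitation, 600 nm emission), developed 18–24 h after a 115–120 h compound exposure of 750 HPAF-II cells per well in MEM/10% FBS at 37 °C. Compound was tested as a serial dilution in triplicate, and IC50 values were calculated.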

Pa16c cells = test: Pa16c Cell Proliferation Assay; format: cell-based; settings: Table 2, read-out: Inhibition of cell proliferation in Pa16c (IC50 class)
Outline: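 Proliferation read-out: resazurin fluorescence (540 nm excitation, 600 nm emission) after an extra 18 to 24 h. Before that, compound dilution series (triplicate) stayed on 750 Pa16c cells/well in complete DMEM/10% FBS for 67 to 72 h at 37° C. IC50 values derived from the curves.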

[3] = Homo sapiens, MIA PaCa-2, MiaPaca-2 cells
[4] = Homo sapiens, HCT-116, HCT-116 cells

Structure (SMILES)	IC50 [1]	IC50 [2]	IC50 (MiaPaca-2 cells; MiaPaca-2 cells)	IC50 (HCT-116 cells; HCT-116 cells)	IC50 (HPAF-II cells)	IC50 (Pa16c cells)	IC50 (MiaPaca-2 cells; [3])	IC50 (HCT-116 cells; [4])	IC50 (HPAF-II cells; Homo sapiens, HPAF-II)
CC(=O)Nc1cc(-c2cncc(-c3cc(NC(=O)c4cc(C(F)(F)F)cnn4)ccc3C)c2)ncn1 [Example 71]	< 100 nM	< 100 nM	500 to 1000 nM	100 to 500 nM	500 to 1000 nM	1000 to 10000 nM			
Cc1ccc(NC(=O)c2cc3c(nn2)CCC3)cc1-c1ccnc(-c2ccnc(NC(=O)C3CC3)c2)c1 [Example 98]	< 100 nM	< 100 nM				1000 to 10000 nM	1000 to 10000 nM	1000 to 10000 nM	1000 to 10000 nM
Cc1ccc(NC(=O)c2cc(C3CC3)cnn2)cc1-c1cc(N[C@H](C)CO)nc(-c2cn[nH]c2)c1 [Example 117]	< 100 nM	< 100 nM				< 100 nM	< 100 nM	< 100 nM	< 100 nM
Cc1ccc(NC(=O)c2ccc(C(F)(F)F)nn2)cc1-c1ccnc(-c2ccnc(NC(=O)C3CC3)c2)c1 [Example 19]	100 to 500 nM	< 100 nM				< 100 nM	100 to 500 nM	100 to 500 nM	100 to 500 nM
Cc1ccc(NC(=O)c2cc(C(C)C)cnn2)cc1-c1cncc(-c2cc(NC(=O)C3CC3)ncn2)c1 [Example 64]	< 100 nM	< 100 nM				100 to 500 nM	500 to 1000 nM	100 to 500 nM	100 to 500 nM
Cc1ccc(NC(=O)c2cc(C(C)(F)F)cnn2)cc1-c1cc(NCCO)nc(-c2ccnc(NC(=O)C3CC3)c2)c1 [Example 101]	< 100 nM	< 100 nM				< 100 nM	100 to 500 nM	< 100 nM	100 to 500 nM
Cc1ccc(NC(=O)c2cc(C(F)(F)F)cnn2)cc1-c1ccnc(-c2ccnc(N)c2)c1 [Example 2, N-(3-(2′-amino-[2,4′-bipyridin]-4-yl)-4-methylphenyl)-5-(trifluoromethyl)pyridazine-3-carboxamide]	< 100 nM	< 100 nM				< 100 nM	< 100 nM	< 100 nM	< 100 nM
Cc1ccc(NC(=O)c2ccc(C(F)F)nc2)cc1-c1ccnc(-c2ccnc(NC(=O)C3CC3)c2)n1 [Example 70]	< 100 nM	< 100 nM				1000 to 10000 nM	100 to 500 nM	100 to 500 nM	100 to 500 nM
Cc1cnc(NC(=O)c2cc(C(F)(F)F)cnn2)cc1-c1ccnc(-c2ccnc(NC(=O)C3CC3)c2)c1 [Example 36]	< 100 nM	< 100 nM				1000 to 10000 nM	1000 to 10000 nM	100 to 500 nM	1000 to 10000 nM
CC(=O)Nc1cc(-c2cc(-c3cc(NC(=O)c4ccc(C(F)(F)F)nn4)ccc3C)ccn2)ccn1 [Example 13]	500 to 1000 nM	100 to 500 nM				< 100 nM	< 100 nM	< 100 nM	< 100 nM
Cc1ccc(NC(=O)c2cc(C(F)(F)F)cnn2)cc1-c1cc(OCCO)nc(-c2cn[nH]c2)c1 [Example 116]	< 100 nM	< 100 nM				< 100 nM	< 100 nM	< 100 nM	< 100 nM
CC(=O)Nc1cc(-c2cc(-c3cc(NC(=O)c4ccc(C(F)(F)F)nc4)ccc3C)ccn2)ccn1 [Example 24]	< 100 nM	< 100 nM				100 to 500 nM	< 100 nM	< 100 nM	< 100 nM
Cc1ccc(NC(=O)c2cc(C(F)(F)F)cnn2)cc1-c1cccc(-c2cc(NC(=O)C3CC3)ncn2)c1 [Example 11]	< 100 nM	< 100 nM				1000 to 10000 nM	500 to 1000 nM	100 to 500 nM	500 to 1000 nM
